The text below walks through data of patent US20240425497A1, “Cbl-b Inhibitors and Methods of Use Thereof” (ARCUS BIOSCIENCES, INC., priority 2023, published 2024).

In one experiment the test system is Jurkat cells. The experiment is described as follows: IL-2 secretion assay in CD3/CD28-activated Jurkat cells (AlphaLISA). The format is cell-based, human. As to conditions: Homo sapiens, CD3/CD28 activation, 24 h. Here is the method: Certain compounds were also evaluated in an IL-2 secretion assay. On the day of the assay, a 16 point, 1:2 master serial dilution of each compound was prepared in Opti-MEM to span a final concentration range of […]. Assays were set up in CORNING® tissue culture-treated 384-well microplates containing 60 nL of each dilution. Jurkat cells grown in RPMI-1640 supplemented with 10% FBS, 1% Glutamax, and 1% Pen/Strep were collected, resuspended in Opti-MEM. 50,000 cells/well and added to the compound plates. After a short spin (1200 rpm for 1 min), the plates were incubated at 37° C. for 1 hour. The cells were activated by adding 15 μL of IMMUNOCULT™ Human CD3/CD28 T Cell Activator (STEMCELL Technologies) diluted in Opti-MEM. After 24 h of incubation at 37° C., aliquots of culture supernatants were transferred to OptiPlate-384 (PerkinElmer) microplates. The level of JIL-2 secretion in the supernatants was then determined using the IL-2 (human) AiphaLISA Detection Kit (PerkinElmer) according to the manufacturer's recommendations. The AiphaLISA signal was measured using an EnVision plate reader (PerkinElmer). EC50 values were determined by fitting the data to a standard 4-parameter logistic equation. See Table 3 for data for select compounds (IL-2 Secretion (EC50)).

Another experiment has as its target Cbl-b (Homo sapiens (Human), UniProt Q13191). The experiment is described as follows: Cbl-b probe displacement HTRF binding assay. Conditions: 0.4 nM biotinylated Cbl-b, 150 nM BODIPY probe. Here is the method:
The affinity with which compounds of the present disclosure bind to Cbl-b was assessed using probe displacement homologous time resolved fluorescence (HTRF) assays. The assays used a BODIPY™ conjugated probe (Example 54 from WO 2020264398) and biotinylated Cbl-b. The assays were performed in assay buffer consisting of 20 mM Hepes, 150 mM NaCl, 0.01% Triton X-100, 0.5 mM TCEP, 0.01% BSA. On the day of the assay, a 20 point, 1:2 master serial dilution of each compound was prepared in DMSO to span a final concentration range of 10 μM to 0 nM. Two hundred nanoliters of diluted compound was added to each well of a 384-well plate. Fifteen microliters of biotinylated-Cbl-b resuspended in assay buffer were added to each well and the plate incubated for 60 minutes at room temperature prior to addition of 5 μL of BODIPY™ probe in assay buffer. Final assay conditions included 0.4 nM of Cbl-b and 150 nM of BODIPY™ probe. After a further 15 minutes of incubation at room temperature, 5 μl of Streptavidin-Terbium cryptate reagent at 5-fold final concentration was added to each well of the 384-well plate. Binding of a probe to Cbl-b results in an increase of HTRF signal. HTRF signal was measured by Envision plate reader, while competition of a compound of the present disclosure with probe results in a decrease of signal. Percentage maximum activity in each test well was calculated based on DMSO (maximum activity, 0% displacement) and no protein control wells (baseline activity, 100% displacement). Binding affinity was determined from a dose response curve fitted using a standard four parameter fit equation. See Table 3 for data for compounds (Cbl-b Binding (IC50)).
Background: In TR-FRET formats the signal depends on donor and acceptor labels being close together.

As a reminder, the EC50 is the concentration needed to bring the measured effect to its halfway point. Low readings indicate an effect from little substance, high ones a need for much substance. Broadly, the IC50 is the concentration at which inhibition is half-maximal. A higher IC50 goes with weaker potency.

Cbl-b, sequence (Q13191 whole entry, species assumed): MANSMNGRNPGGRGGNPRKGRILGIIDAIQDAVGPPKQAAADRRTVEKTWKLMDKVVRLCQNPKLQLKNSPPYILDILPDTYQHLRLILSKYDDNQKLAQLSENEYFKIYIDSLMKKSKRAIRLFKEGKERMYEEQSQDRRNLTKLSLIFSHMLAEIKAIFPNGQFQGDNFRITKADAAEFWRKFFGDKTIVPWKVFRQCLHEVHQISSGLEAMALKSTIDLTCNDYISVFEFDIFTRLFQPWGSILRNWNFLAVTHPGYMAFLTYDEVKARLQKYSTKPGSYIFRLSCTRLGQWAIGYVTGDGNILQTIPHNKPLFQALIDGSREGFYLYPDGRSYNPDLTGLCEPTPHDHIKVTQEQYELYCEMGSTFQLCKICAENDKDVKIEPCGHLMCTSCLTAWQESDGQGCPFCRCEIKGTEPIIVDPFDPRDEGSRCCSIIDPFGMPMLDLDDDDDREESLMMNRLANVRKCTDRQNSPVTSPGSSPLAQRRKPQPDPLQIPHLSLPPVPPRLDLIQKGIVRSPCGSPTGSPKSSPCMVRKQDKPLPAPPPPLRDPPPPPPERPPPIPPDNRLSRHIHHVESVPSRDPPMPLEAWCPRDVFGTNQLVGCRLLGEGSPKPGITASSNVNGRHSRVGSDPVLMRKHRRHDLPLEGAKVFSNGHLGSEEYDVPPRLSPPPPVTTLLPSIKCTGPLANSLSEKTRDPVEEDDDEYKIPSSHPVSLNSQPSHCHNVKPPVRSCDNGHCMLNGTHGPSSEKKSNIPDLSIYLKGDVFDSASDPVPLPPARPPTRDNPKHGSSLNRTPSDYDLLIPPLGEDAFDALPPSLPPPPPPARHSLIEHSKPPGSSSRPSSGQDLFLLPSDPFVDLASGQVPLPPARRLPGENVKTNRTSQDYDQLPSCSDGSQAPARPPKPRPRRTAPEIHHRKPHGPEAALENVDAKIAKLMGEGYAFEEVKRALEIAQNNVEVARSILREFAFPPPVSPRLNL

As to `COCCNCc1cc2ncn(-c3cc(-c4ccc(F)cc4C(=O)N4CC(F)(F)C4)cc(C4CC4)c3)c(=O)c2[nH]1` [Example 41, 6-{5-cyclopropyl-2′-[(3,3-difluoro-1-azetidinyl)carbonyl]-4′-fluoro-3-biphenylyl}-2-[(2-methoxyethylamino)methyl]-1,6-dihydro-1,4,6-triaza-7-indenone], in the experiment with Jurkat cells, the EC50 fell in the range of 0.1 to 1 µM. Also, the IC50 on Cbl-b is < 0.1 µM.
Consider `C[C@H]1CCCN(Cc2cc3c(C4CC4)cn(-c4cc(-c5ccc(F)cc5C(=O)N(C)C)cc(C5CC5)n4)c(=O)c3[nH]2)C1` [Example 1, 2-[2-cyclopropyl-6-[4-cyclopropyl-2-[[(3S)-3-methylpiperidin-1-yl]methyl]-7-oxo-1H-pyrrolo[2,3-c]pyridin-6-yl]pyridin-4-yl]-5-fluoro-N,N-dimethylbenzamide], for which the EC50 in the experiment with Jurkat cells is < 0.1 µM. Also, the IC50 on Cbl-b was < 0.1 µM.
`O=C(c1cc(F)ccc1-c1cc(C2CC2)nc(-n2cc(C(F)(F)F)c3cc(C4COCCN4)[nH]c3c2=O)c1)N1CC(F)C1` (racemic) [Example 55, 6-[6-cyclopropyl-4-[4-fluoro-2-(3-fluoroazetidine-1-carbonyl)phenyl]pyridin-2-yl]-2-morpholin-3-yl-4-(trifluoromethyl)-1H-pyrrolo[2,3-c]pyridin-7-one]: the EC50 in the experiment on Jurkat cells lay in the range of 0.1 to 1 µM. For the same compound, the IC50 at Cbl-b was < 0.1 µM.
For `O=C(c1cc(F)ccc1-c1cc(C2CC2)nc(-n2cc(C3CC3)c3cc(CN[C@H]4CCC[C@H]4O)[nH]c3c2=O)c1)N1CC(F)C1` [Example 17, 2-{[(1S,2R)-2-hydroxycyclopentylamino]methyl}-4-cyclopropyl-6-(6-cyclopropyl-4-{4-fluoro-2-[(3-fluoro-1-azetidinyl)carbonyl]phenyl}-2-pyridyl)-1,6-dihydro-1,6-diaza-7-indenone] the same measures were < 0.1 µM and < 0.1 µM.
For `N#Cc1c(CO)[nH]c2c(=O)n(-c3cc(-c4ccc(F)cc4C(=O)C4CC(F)C4)cc(C4CC4)n3)cc(C(F)(F)F)c12` (centres unmarked) [Example 53, 6-[6-cyclopropyl-4-[4-fluoro-2-(3-fluorocyclobutanecarbonyl)phenyl]pyridin-2-yl]-2-(hydroxymethyl)-7-oxo-4-(trifluoromethyl)-1H-pyrrolo[2,3-c]pyridine-3-carbonitrile] the same measures were 0.1 to 1 µM and < 0.1 µM.
In the experiment on Jurkat cells, `O=C(c1cc(F)ccc1-c1cc(C2CC2)nc(-n2cnc3cc(C4CC4)[nH]c3c2=O)c1)N1CC(F)C1` [Example 33, 6-cyclopropyl-3-[6-cyclopropyl-4-[4-fluoro-2-(3-fluoroazetidine-1-carbonyl)phenyl]pyridin-2-yl]-5H-pyrrolo[3,2-d]pyrimidin-4-one] showed an EC50 of 0.1 to 1 µM. This compound showed an IC50 at Cbl-b of 0.1 to 1 µM.
In the experiment with Jurkat cells, `CC(O)c1cc2ncn(-c3cc(-c4ccc(F)cc4C(=O)N4CC(F)C4)cc(C4CC4)n3)c(=O)c2[nH]1` (centres unmarked) [Example 27, 6-(6-cyclopropyl-4-{4-fluoro-2-[(3-fluoro-1-azetidinyl)carbonyl]phenyl}-2-pyridyl)-2-(1-hydroxyethyl)-1,6-dihydro-1,4,6-triaza-7-indenone] displayed an EC50 of 1 to 5 µM. Also, on Cbl-b, the IC50 lay within 0.1 to 1 µM.
In the same order, the values of `C[C@H]1CCCN(Cc2cc3c(C#N)cn(-c4cncc(-c5ccc(F)cc5C(=O)N5CC(F)C5)c4)c(=O)c3[nH]2)C1` [Example 24, 2-{[(S)-3-methyl-1-piperidyl]methyl}-6-(5-{4-fluoro-2-[(3-fluoro-1-azetidinyl)carbonyl]phenyl}-3-pyridyl)-7-oxo-1,6-dihydro-1,6-diaza-4-indenecarbonitrile] are 0.1 to 1 µM and 0.1 to 1 µM.
In the same order, the values of `C[C@H]1CCCN(Cc2nc3c(C4CC4)cn(-c4cc(-c5ccc(F)cc5C(=O)N5CC(F)C5)cc(C5CC5)c4)c(=O)c3[nH]2)C1` [Example 29, 7-cyclopropyl-5-[3-cyclopropyl-5-[4-fluoro-2-(3-fluoroazetidine-1-carbonyl)phenyl]phenyl]-2-[[(3S)-3-methylpiperidin-1-yl]methyl]-3H-imidazo[4,5-c]pyridin-4-one] are < 0.1 µM and < 0.1 µM.
In the same order, the values of `C[C@H]1CCCN(Cc2cc3c(C4CC4)cn(-c4cc(-c5ccc(F)cc5C(=O)N5CC(F)C5)nc(C5CC5)n4)c(=O)c3[nH]2)C1` [Example 30, 4-cyclopropyl-6-[2-cyclopropyl-6-[4-fluoro-2-(3-fluoroazetidine-1-carbonyl)phenyl]pyrimidin-4-yl]-2-[[(3S)-3-methylpiperidin-1-yl]methyl]—1H-pyrrolo[2,3-c]pyridin-7-one] are < 0.1 µM and < 0.1 µM.
As to `C[C@H]1CCCN(Cc2cc3c(C4CC4)cn(-c4cc(-c5ccc(F)cc5C(=O)N5CCC5)cc(C5CC5)n4)c(=O)c3[nH]2)C1` [Example 7, 2-{[(S)-3-methyl-1-piperidyl]methyl}-6-(4-{2-[(1-azetidinyl)carbonyl]-4-fluorophenyl}-6-cyclopropyl-2-pyridyl)-4-cyclopropyl-1,6-dihydro-1,6-diaza-7-indenone], the EC50 with Jurkat cells is < 0.1 µM. Also, the IC50 at Cbl-b is < 0.1 µM.
In the experiment on Jurkat cells, `CCOCCNC(=O)c1cc(F)ccc1-c1cc(C2CC2)nc(-n2cc(C3CC3)c3cc(CN4CCC[C@H](C)C4)[nH]c3c2=O)c1` [Example 2, 2-[2-cyclopropyl-6-[4-cyclopropyl-2-[[(3S)-3-methylpiperidin-1-yl]methyl]-7-oxo-1H-pyrrolo[2,3-c]pyridin-6-yl]pyridin-4-yl]-N-(2-ethoxyethyl)-5-fluorobenzamide] showed a 50% effective concentration (EC50) of 1 to 5 µM. This compound registered an IC50 at Cbl-b of 0.1 to 1 µM.
In the experiment on Jurkat cells, `O=C(c1cc(F)ccc1-c1cc(C2CC2)nc(-n2cnc3cc(CN4CC5CCC4C5)[nH]c3c2=O)c1)N1CC(F)C1` (centres unmarked) [Example 37, 6-(2-azabicyclo[2.2.1]heptan-2-ylmethyl)-3-[6-cyclopropyl-4-[4-fluoro-2-(3-fluoroazetidine-1-carbonyl)phenyl]pyridin-2-yl]-5H-pyrrolo[3,2-d]pyrimidin-4-one] came in with an EC50 of 0.1 to 1 µM. Also, the IC50 on Cbl-b was < 0.1 µM.
For `C[C@H]1CCCN(Cc2cc3c(C#N)cn(-c4cc(-c5c(C(=O)N6CC(F)C6)cnn5C)cc(C5CC5)n4)c(=O)c3[nH]2)C1` [Example 45, 2-{[(S)-3-methyl-1-piperidyl]methyl}-6-(6-cyclopropyl-4-{4-[(3-fluoro-1-azetidinyl)carbonyl]-1-methyl-5-pyrazolyl}-2-pyridyl)-7-oxo-1,6-dihydro-1,6-diaza-4-indenecarbonitrile] the same measures were 0.1 to 1 µM and < 0.1 µM.
In the same order, the values of `C[C@H]1CCCN(Cc2nc3c(C(F)(F)F)cn(-c4cc(-c5ccc(F)cc5C(=O)N5CC(F)C5)cc(C5CC5)n4)c(=O)c3[nH]2)C1` [Example 48, 5-[6-cyclopropyl-4-[4-fluoro-2-(3-fluoroazetidine-1-carbonyl)phenyl]pyridin-2-yl]-2-[[(3S)-3-methylpiperidin-1-yl]methyl]-7-(trifluoromethyl)-3H-imidazo[4,5-c]pyridin-4-one] are < 0.1 µM and < 0.1 µM.
For `CC1(NCc2cc3ncn(-c4cc(-c5ccc(F)cc5C(=O)N5CC(F)C5)cc(C5CC5)n4)c(=O)c3[nH]2)CCC1` [Example 36, 3-[6-cyclopropyl-4-[4-fluoro-2-(3-fluoroazetidine-1-carbonyl)phenyl]pyridin-2-yl]-6-[[(1-methylcyclobutyl)amino]methyl]-5H-pyrrolo[3,2-d]pyrimidin-4-one] the same measures were < 0.1 µM and < 0.1 µM.
